From patent publication US20050148634A1, “1-N-Aminobenzimidazole derivatives” (ZERIA PHARMACEUTICAL CO., LTD, priority 2002, published 2005) come the findings set out here.

The target of one series is T1, H+/K+-ATPase (Sus scrofa, UniProt P19156).
T1 construct: An interface fraction obtained by the centrifugation was collected; from tissue; host or cells: swine stomach mucosal layer, membrane fraction from the sucrose interface
Put plainly: Test 1 proton pump inhibitory effect: H+/K+-ATPase enzyme inhibiting activity at pH 1. The note with it: swine stomach enzyme sample; test compound pretreated in pH 1 hydrochloric acid solution with 50% DMSO for 15 minutes; ATP substrate. It counts as biochemical. As for the experimental part: Test 1 (Proton Pump Inhibitory Effect)
(1) Preparation of H^+/K^+-ATPase Enzyme Sample
A swine stomach which had been stored frozen was separated into a muscularis and a mucosal layer. After the mucosal layer was disrupted with a mixer in 5 volumes of 20 mmol/L tris-HCl buffer containing 0.25 mol/L of sucrose and 1 mmol/L of EGTA (pH 7.4, hereafter abbreviated as “tris-HCl buffer”), centrifugation was conducted at 9,000×g for 30 minutes. The supernatant was gently overlaid on 20 mmol/L tris-HCl buffer containing 30% of sucrose and 1 mmol/L of EGTA (pH 7.4, 8 mL), followed by ultracentrifugation at 100,000×g for 60 minutes. An interface fraction obtained by the centrifugation was collected and subjected to centrifugation twice under 113,000×g for 60 minutes. The sediment was suspended with tris-HCl buffer, and the suspension was homogenized at low rotational speed to provide an enzyme sample. The enzyme sample was stored frozen at −80° C. Using the method reported by Smith et al. (Anal. Biochem., 150, 76-85 (1985)), the thus-obtained sample was quantitatively analyzed for its protein content with a BCA protein assay reagent. The above procedure was all conducted under water cooling.
(2) Discussion about H+/K^+-ATPase Enzyme Inhibiting Activity at pH 1
Following a method making use of a method for the quantitation of inorganic phosphorus as a degradation product (Biochem. Biophys. Res. Commun., 40, 880-886 (1970)), an assay of H^+/K^+-ATPase enzyme inhibiting activity was performed by using ATP as a substrate. As a hydrochloric acid solution for the pretreatment of each test compound, a 1×10^−1 mol/L (pH 1) solution of hydrochloric acid with 50% DMSO contained therein was used. Solutions of each test compound at various concentrations were added to aliquots of the hydrochloric acid solution such that the solutions were diluted 1,000-fold, and the thus-diluted solutions were left over at room temperature for 15 minutes. […] 840-μL Aliquots of an enzyme solution (5 μg proteins) diluted with the TE buffer were then added. After incubated at 37° C. for 30 minutes, 50-μL aliquots of 40 mmol/LATP solution (dissolved in the TE buffer free of KCl) were added to initiate an enzymatic reaction (total volume: 1 mL, final ATP concentration: 2 mmol/L). Subsequent to incubation at 37° C. for 30 minutes, 2-mL aliquots of ice-cold 12% trichloroacetic acid were added to terminate the enzymatic reaction. A molybdenum reagent (1 mL; 3.75% ammonium molybdate/1.5 mol/L sulfuric acid) and butyl acetate (5 mL) were added. After vigorous shaking and mixing for 5 minutes, the absorbance of a butyl acetate layer was measured at 310 nm. From absorbances obtained by dissolving KH2PO4 solutions of various concentrations in aliquots of an 8% TCA solution and performing a similar procedure, a standard curve was prepared to perform a conversion of each quantity of inorganic phosphorus. The assay was conducted in duplicate. From a difference between an average quantity of inorganic phosphorus in the case of the KCl-containing TE buffer and an average quantity of inorganic phosphorus in the case of the KCl-free TE buffer, a residual activity was determined. Supposing that the activity of the control value (DMSO) was 100%, the percent inhibition of the compound was calculated. As the inhibition potency of each test compound, an IC50 value was calculated and presented. The test compounds were al used by dissolving them in dimethyl sulfoxide immediately before their use.

The subject of series [1] is histamine-stimulated gastric acid secretion. In words: Test 2 gastric acid secretion inhibitory effect, acute fistula method. The note with it: male SD rats, administered into the duodenum; total gastric acid secreted on 3rd-5th hours; Probit method. It is filed as in vivo, Sprague-Dawley (SD) rats. As for the experimental part: Test 2 (Gastric Acid Secretion Inhibitory Effect)
(1) As laboratory animals, seven-week old male Sprague-Dawley (SD) rats were purchased from CHARLES RIVER JAPAN, INC. Subsequent to preliminary rearing for 5 days or longer, they were used in an experiment.
Each test medicine was suspended or dissolved in a 0.5% carboxymethylcellulose sodium solution to prepare a volume of 2.5 mL/kg.
(2) Measurement of Gastric Acid Secretion
Using rats fasted for 18 hours, histamine-stimulated gastric acid secretion in an acute fistula method following the method reported by Hiramatsu et al. (Dig. Dis. Sci., 39, 689-697 (1994)) was measured. Described specifically, each rat was lightly anesthetized with diethyl ether. After that, a winged tube needle with 3.8% citric acid solution filled therein was caused to dwell in the caudal vein. Celiotomy was performed, and the pyloric part of the stomach was ligated. A small hole was then formed in the duodenum, and a feeding tube with physiological saline filled therein was caused to dwell there. After the interior of the stomach was washed with physiological saline, a polyethylene-made fistula tube (inner diameter: 4 mm) was fitted to the proventriculus part and an incised part of the proventriculus was ligated to hold the fistula tube in place. The stomach and duodenum were returned into the abdominal cavity. Celiotomy was performed with the fistula tube and feeding tube being left extending outside, and the rat was placed in a Ballman Cage Type II. Histamine was continuously injected through the winged needle allowed to dwell in the caudal vein (8 mg/kg/h, 1.38 mL/h). Fifteen minutes later, the gastric juice was sampled, and after that, the gastric juice was sampled at intervals of 1 hour. After the amount of each gastric juice sample was recorded, it was titrated with 0.1 mol/L NaOH to a final point of pH 7.0. From the volume required for the titration, the acidity was calculated. The quantity of the secreted gastric acid was determined from the product of the amount of the gastric juice and the acidity. Incidentally, the rats were divided into groups such that the total amount of the first gastric juice samples became equal in each group. Each test medicine was administered in a volume of 2.5 mL/kg into the duodenum through the feeding tube fitted beforehand in the duodenum. To a control group, 0.5% Na—CMC solution was administered.
(3) Analysis of the Results
From the results so obtained, data were presented in terms of average ±S.D. The sum of quantities of gastric acid secreted on the 3rd, 4th and 5th hours after the first sampling was recorded as a total quantity of secreted gastric acid. The percent inhibition in each group was calculated from the total quantity of secreted gastric acid in the control group and the total quantity of secreted gastric acid in the group. From the percent inhibition in each group, the 50% effective dose (ED50) was next calculated by the Probit method.

The target in the next series is T2, human CYP2C19 (Homo sapiens, UniProt P33261).
T2 construct: purchased Sumitomo Chemical Co., Ltd
In words: Test 3 human CYP2C19 activity inhibition test (S-(+)-mephenyloin to 4'-hydroxymephenyloin). It is filed as in vitro ADME. The note with it: test compound 10 μM; microsomes from human CYP2C19 expression system; formed 4'-hydroxymephenyloin compared with control. The method, then: Test 3 (Human CPY2C19 Activity Inhibition Test)
CYP2C19 specifically induces the metabolic reaction of from S-(+)-mephenyloin into 4′-hydroxymephenyloin. Using the CYP2C19 expression system, the inhibitory effect of each test substance was investigated based on the amount (concentration) of formed 4′-hydroxymephenylion as an index of CYP2C19 activity.
a) Metabolic Activity Test
As a reaction mixture, a 125 μmol/L solution of S-(+)-mephenyloin in methanol (50 μL) and a 25 μmol/L solution of each test substance in methanol (0, 10, 100 or 200 μL) were added to 10-mL test tube made of glass, and the solvent was distilled off under a nitrogen gas stream (40° C.).
After incubated at 37° C. for 10 minutes, a 12% aqueous solution of perchloric acid (50 μL) was added to terminate the reaction.
Subsequent to the termination of the reaction, 10 μg/mL methyl p-hydroxybenzoate (50 μL) as an internal standard (I.S.) and diethyl ether (2 mL) were added. The resulting mixture was shaken for 10 minutes, and then centrifuged (3,000 rpm, 10 minutes). The organic layer was separately collected, and under a nitrogen gas stream (40° C.), the solvent was distilled off. The residue was dissolved in a mobile phase (200 μL), and an analysis was conducted by high performance liquid chromatography (HPLC).
Using a solution of 4′-hydroxymephenyloin in lieu of the S-(+)-mephenyloin solution, a calibration line was prepared following the above-described reaction method. Quantitation was conducted based on a peak area ratio of 4′-hydroxymephenyloin to the I.S. Comparing the formed amount of 4′-hydroxymephenyloin as a control with that of 4′-hydroxymephenyloin at the time of the existence of the test compound, the comparison result was used as an index of activity.
HPLC was conducted under the following HPLC conditions A or HPLC conditions B. […]

For orientation: melting point means the temperature, or range, at which the solid turns liquid. One may read the IC50 as the concentration that inhibits the measured activity by half.

SMILES strings stand for the structures. Structures can show the parent of a compound that is named as a salt.

T1 sequence (P19156 2-1034 limits assumed): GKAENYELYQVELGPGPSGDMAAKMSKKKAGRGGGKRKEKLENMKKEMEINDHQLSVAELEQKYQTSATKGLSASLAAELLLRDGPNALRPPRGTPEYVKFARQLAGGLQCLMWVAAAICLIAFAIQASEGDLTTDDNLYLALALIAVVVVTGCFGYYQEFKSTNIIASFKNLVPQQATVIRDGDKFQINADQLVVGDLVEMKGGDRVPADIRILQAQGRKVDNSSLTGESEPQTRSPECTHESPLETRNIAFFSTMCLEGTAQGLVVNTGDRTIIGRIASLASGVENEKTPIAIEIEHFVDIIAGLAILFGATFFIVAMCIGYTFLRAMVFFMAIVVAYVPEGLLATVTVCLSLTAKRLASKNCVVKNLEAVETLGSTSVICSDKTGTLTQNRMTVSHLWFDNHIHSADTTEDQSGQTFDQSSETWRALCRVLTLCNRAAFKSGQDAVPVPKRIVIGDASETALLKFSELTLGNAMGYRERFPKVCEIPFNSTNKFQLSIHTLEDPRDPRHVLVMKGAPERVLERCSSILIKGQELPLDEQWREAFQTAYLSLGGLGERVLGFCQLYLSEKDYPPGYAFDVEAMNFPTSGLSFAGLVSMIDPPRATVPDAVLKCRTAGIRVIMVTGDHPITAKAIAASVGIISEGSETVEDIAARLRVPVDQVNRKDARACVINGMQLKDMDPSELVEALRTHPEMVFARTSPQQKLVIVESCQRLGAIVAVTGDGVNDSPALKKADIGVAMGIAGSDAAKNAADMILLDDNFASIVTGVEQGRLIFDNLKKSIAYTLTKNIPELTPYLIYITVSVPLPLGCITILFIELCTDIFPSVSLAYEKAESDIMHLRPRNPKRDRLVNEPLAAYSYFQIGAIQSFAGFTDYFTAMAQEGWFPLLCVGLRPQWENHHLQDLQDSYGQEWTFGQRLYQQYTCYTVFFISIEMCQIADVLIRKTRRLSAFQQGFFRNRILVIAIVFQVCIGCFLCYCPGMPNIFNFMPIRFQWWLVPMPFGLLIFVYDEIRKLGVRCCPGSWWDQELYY
T1 sequence (P18434 whole entry partner): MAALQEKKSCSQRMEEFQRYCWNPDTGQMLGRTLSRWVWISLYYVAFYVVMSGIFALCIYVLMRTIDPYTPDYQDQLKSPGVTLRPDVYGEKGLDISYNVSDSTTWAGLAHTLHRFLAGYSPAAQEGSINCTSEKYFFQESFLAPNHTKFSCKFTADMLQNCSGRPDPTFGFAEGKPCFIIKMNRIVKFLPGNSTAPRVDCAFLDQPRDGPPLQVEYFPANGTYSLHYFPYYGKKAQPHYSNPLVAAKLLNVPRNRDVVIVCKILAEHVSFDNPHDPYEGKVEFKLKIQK
T2 sequence (P33261 whole entry): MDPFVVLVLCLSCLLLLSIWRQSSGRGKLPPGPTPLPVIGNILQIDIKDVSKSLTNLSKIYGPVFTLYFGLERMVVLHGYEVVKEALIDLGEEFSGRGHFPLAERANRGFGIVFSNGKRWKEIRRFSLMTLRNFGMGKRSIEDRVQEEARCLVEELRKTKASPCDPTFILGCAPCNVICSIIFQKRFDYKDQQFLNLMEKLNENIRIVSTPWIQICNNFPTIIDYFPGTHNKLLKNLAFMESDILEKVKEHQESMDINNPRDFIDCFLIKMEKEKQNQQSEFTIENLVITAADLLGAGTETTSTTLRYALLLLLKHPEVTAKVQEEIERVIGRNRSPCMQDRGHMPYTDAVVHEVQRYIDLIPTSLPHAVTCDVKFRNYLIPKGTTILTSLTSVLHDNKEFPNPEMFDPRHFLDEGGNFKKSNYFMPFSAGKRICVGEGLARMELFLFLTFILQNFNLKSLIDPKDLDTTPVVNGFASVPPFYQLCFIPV

Compound `Cc1c(OCC(F)(F)F)ccnc1C[S+]([O-])c1nc2ccccc2n1N` (single isomer, unassigned; (+)) (as salt: tartrate) [(+) isomer of Example 1, (+)-1-Amino-2-[[4-(2,2,2-trifluoroethoxy)-3-methylpyridin-2-yl]methylsulfinyl]benzimidazole] had a melting point of 111 to 113 °C. `Cc1c(OCC(F)(F)F)ccnc1C[S+]([O-])c1nc2cc(OC(F)F)ccc2n1N` (stereo not shown) [Example 68] yielded a melting point of 194 to 195 °C. Also, the IC50 on H+/K+-ATPase came out at 3.2 µM. Consider `CBc1cc(C)nc(C[S+]([O-])c2nc3ccccc3n2N)c1` (stereo not shown) [Example 7], for which the melting point is 130 to 133 °C. Take `Cc1c(OCC(F)(F)F)ccnc1C[S+]([O-])c1nc2ccccc2n1NCc1ccccc1` (racemic) [Example 49]: the IC50 on H+/K+-ATPase worked out at 1.03 µM. As for `Cc1c(OCC(F)(F)F)ccnc1C[S+]([O-])c1nc2ccccc2n1NCC(O)c1ccccc1` (mixture of isomers) [Example 51], the IC50 on H+/K+-ATPase amounted to 3.32 µM. The “Gastric acid secretion inhibitory effect ED50” value in series [1] is on record as 2.4 mg/kg.

For `Cc1c(OCC(F)(F)F)ccnc1C[S+]([O-])c1nc2ccccc2n1NCCc1ccccc1` (racemic) [Example 50], the IC50 on H+/K+-ATPase came out at 0.87 µM.

The compound `COc1ccc2nc([S+]([O-])Cc3ncc(C)c(OC)c3C)n(N)c2n1` (stereo not shown) [Example 78] showed a melting point of 174 to 175 °C. For the same compound, at human CYP2C19, the “CYP2C19 activity inhibition (%)” value stood at 62%. Regarding `Cc1c(OCC(F)(F)F)ccnc1C[S+]([O-])c1nc2ccccc2n1NCCCCCO` (racemic) [Example 54], the IC50 at H+/K+-ATPase stood at 3.88 µM. Same read-out and setting: as for `COC(=O)CNn1c([S+]([O-])Cc2nccc(OCC(F)(F)F)c2C)nc2ccccc21` (racemic) [Example 47], the figure is 4.85 µM; as for `C=CCNn1c([S+]([O-])Cc2nccc(OCC(F)(F)F)c2C)nc2ccccc21` (racemic) [Example 64], 2.28 µM.
